Assay results as given in PubChem BioAssay (NCI).
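GI50 = concentration required for 50% inhibition of growth. TGI: total growth inhibition.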

Columns and labels:
Assay in all cases: NCI tumour cell line growth inhibition, 384-well format
DU-145 prostate = system: DU-145 prostate
A549 NSCLC = system: A549 NSCLC
IGROV1 ovarian = system: IGROV1 ovarian
MCF7 breast = system: MCF7 breast
EKVX NSCLC = system: EKVX NSCLC
SK-OV-3 ovarian = system: SK-OV-3 ovarian
HOP-62 NSCLC = system: HOP-62 NSCLC
KM12 colon = system: KM12 colon
OVCAR-3 ovarian = system: OVCAR-3 ovarian
U251 glioblastoma = system: U251 glioblastoma
SF-295 CNS = system: SF-295 CNS
ACHN renal = system: ACHN renal
MOLT-4 leukemia = system: MOLT-4 leukemia

Which results are given for `CC(C)N(CCCNC(=O)Nc1ccc(C(C)(C)C)cc1)C[C@H]1O[C@@H](n2ccc3c(N)ncnc32)[C@H](O)[C@@H]1O`?
GI50 (DU-145 prostate): > 100 µM; TGI (DU-145 prostate): > 100 µM; GI50 (A549 NSCLC): > 100 µM; TGI (A549 NSCLC): > 100 µM; GI50 (IGROV1 ovarian): > 72.4 µM; TGI (IGROV1 ovarian): > 100 µM; GI50 (MCF7 breast): > 100 µM; TGI (MCF7 breast): > 100 µM; GI50 (EKVX NSCLC): > 100 µM; TGI (EKVX NSCLC): > 100 µM; GI50 (SK-OV-3 ovarian): > 100 µM; TGI (SK-OV-3 ovarian): > 100 µM; GI50 (HOP-62 NSCLC): > 100 µM; TGI (HOP-62 NSCLC): > 100 µM; GI50 (KM12 colon): > 100 µM; TGI (KM12 colon): > 100 µM; GI50 (OVCAR-3 ovarian): > 100 µM; TGI (OVCAR-3 ovarian): > 100 µM; GI50 (U251 glioblastoma): > 100 µM; TGI (U251 glioblastoma): > 100 µM; GI50 (SF-295 CNS): > 100 µM; TGI (SF-295 CNS): > 100 µM; GI50 (ACHN renal): > 100 µM; TGI (ACHN renal): > 100 µM; GI50 (MOLT-4 leukemia): 44.7 µM; TGI (MOLT-4 leukemia): > 100 µM

How did the GI50 (DU-145 prostate) turn out when `[2H]c1nc(C)nc([2H])c1-c1cc(NC[C@@H](C)c2cccc3c(C(=O)NC)ccnc23)ncn1` was run?
Its GI50 is over 100 µM.

And the TGI (DU-145 prostate)?
The TGI was over 100 µM.

What about the GI50 (A549 NSCLC) of the same compound?
The GI50 was over 100 µM.

And the TGI (A549 NSCLC)?
Its TGI is over 100 µM.

What about the GI50 (IGROV1 ovarian) of the same compound?
Its GI50 is over 100 µM.

What about the TGI (IGROV1 ovarian) of the same compound?
The TGI was over 100 µM.

And the GI50 (MCF7 breast)?
Its GI50 is over 100 µM.

What about the TGI (MCF7 breast) of the same compound?
Its TGI is over 100 µM.

And the GI50 (EKVX NSCLC)?
Its GI50 is over 100 µM.

What about the TGI (EKVX NSCLC) of the same compound?
The TGI was over 100 µM.

What about the GI50 (SK-OV-3 ovarian) of the same compound?
The GI50 was over 100 µM.

And the TGI (SK-OV-3 ovarian)?
Its TGI is over 100 µM.

What about the GI50 (HOP-62 NSCLC) of the same compound?
Its GI50 is over 100 µM.

What about the TGI (HOP-62 NSCLC) of the same compound?
The TGI was over 100 µM.

What about the GI50 (KM12 colon) of the same compound?
The GI50 was over 100 µM.

What about the TGI (KM12 colon) of the same compound?
Its TGI is over 100 µM.

What about the GI50 (OVCAR-3 ovarian) of the same compound?
The GI50 was over 100 µM.

And the TGI (OVCAR-3 ovarian)?
The TGI was over 100 µM.

What about the GI50 (U251 glioblastoma) of the same compound?
The GI50 was over 100 µM.

And the TGI (U251 glioblastoma)?
The TGI was over 100 µM.

What about the GI50 (SF-295 CNS) of the same compound?
Its GI50 is over 100 µM.

What about the TGI (SF-295 CNS) of the same compound?
The TGI was over 100 µM.

What about the GI50 (ACHN renal) of the same compound?
Its GI50 is over 100 µM.

And the TGI (ACHN renal)?
Its TGI is over 100 µM.

What about the GI50 (MOLT-4 leukemia) of the same compound?
The GI50 was over 85.7 µM.

And the TGI (MOLT-4 leukemia)?
Its TGI is over 100 µM.
